Data reported in PubChem BioAssay (NCI).
“And” between values parts separate entries of the source, which are not always exact repeats. Equal entries are not always repeated.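 1) Cells in 96-well plates. 2) Compound, 48 h, 5 concentrations. 3) Linear interpolation between surrounding doses. 4) Unreached endpoint = highest concentration. GI50 = concentration required for 50% inhibition of growth. TGI: concentration producing complete growth inhibition.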

Columns and labels:
Assay in all cases: NCI tumour cell line growth inhibition, 48 h
[1] = system: ACHN renal
[2] = system: K-562 leukemia
[3] = system: NCI-H23 lung
[4] = system: RPMI-8226 leukemia
[5] = system: SF-295 CNS
[6] = system: SF-539 CNS
[7] = system: SK-OV-3 ovarian
[8] = system: UACC-257 melanoma
[9] = system: UO-31 renal
[10] = system: SK-MEL-28 melanoma

Row | SMILES | TGI [1] [µM] | TGI [2] [µM] | TGI [3] | TGI [4] [µM] | TGI [5] [µM] | TGI [6] | TGI [7] [µM] | TGI [8] [µM] | TGI [9] [µM] | GI50 [1] [µM] | GI50 [3] [µM] | GI50 [4] [µM] | GI50 [5] [µM] | GI50 [6] | GI50 [10] | TGI [10] | GI50 [7] [µM] | GI50 [8] [µM] | GI50 [9] [µM] | GI50 [2] [µM]
1 | COC(=O)C1=C(CS(=O)c2ccccc2[N+](=O)[O-])ON(C)C1c1ccccc1 (stereo not drawn) | > 100 | 78 | > 100 µM | > 100 | > 100 | 56.2 µM | > 100 | > 100 | > 100 | – | – | – | – | – | – | – | – | – | – | –
2 | CCCCCCN(CCCCCC)CC(O)c1ccc2c3c(cccc13)CC2 (stereo not drawn) | 23.5 | – | 18.1 µM | 9.83 | 12 | 15.2 µM | 27.6 | 22.6 | 17.3 | 10 | 3.7 | 3.02 | 1.17 | 3.83 µM | 11.2 µM | 24.9 µM | 14.1 | 6.97 | 3.09 | –
3 | Oc1ccccc1-c1nc2c3ccccc3c3ccccc3c2[nH]1 | 15.6 | – | 22.3 µM | 14.4 | 22.2 | 21.2 µM | 23.7 | 27.1 | 14.6 | 4.26 | 9.84 | 1.93 | 10.4 | 9.28 µM | 14.4 µM | 27.4 µM | 8.68 | 14.1 | 2.28 | –
4 | COC(=O)CCCCCN=Cc1c(O)c(O)c(C(C)C)c2cc(C)c(-c3c(C)cc4c(C(C)C)c(O)c(O)c(C=NCCCCCC(=O)OC)c4c3O)c(O)c12 | > 32.5 | 6.03 | > 32.5 µM | 15.1 | 5.34 | > 32.5 µM | 20 | – | > 32.5 | 1.42 | 1.32 | 0.946 | 0.911 | 1.6 µM | 1.95 µM | > 32.5 µM | 1.51 | – | 1.24 | 1.07
5 | Cc1c2cc[n+](C)cc2c(C)c2c1[nH]c1ccc(O)c(OCC(F)(F)F)c12 | – | 17 | 5.48 µM | 16.8 | 3.76 | 9.72 µM | 17.2 | 18.9 | 25.6 | – | – | – | – | – | – | 16 µM | – | – | – | –
6 | COc1cc2nc(-c3ccc(C(F)(F)F)cc3)cc(OCCCN3CCCCC3)c2cc1OC | 14.4 | 10.4 | 11.1 µM | – | 2.04 | 8.32 µM | 23.3 | 5.27 | 12.5 | 1.2 | 1.91 | – | 0.53 | 2.08 µM | 1.26 µM | 2.95 µM | 2.3 | 1.7 | 2 | 0.578
7 | C[N+]1(C)C/C(=C\c2ccncc2)C(=O)/C(=C/c2ccncc2)C1 | > 100 | – | – | > 100 | > 100 | > 100 µM | > 100 | > 100 | > 100 | – | – | – | – | – | – | > 100 µM | – | – | – | –
8 | O=C1C2Cc3ccccc3CN2C(=O)N1CCN1CCCC1 (stereo not drawn) | > 100 | > 100 | > 100 µM | > 100 | > 100 | > 100 µM | – | – | > 100 | – | – | – | – | – | – | > 100 µM | – | – | – | –
9 | Cc1cc2c(=O)c3ccccc3[nH]c2c(C(=O)O)c1C | > 100 | > 100 | > 100 µM | > 100 | > 100 | > 100 µM | – | > 100 | 87.5 | – | – | – | – | – | – | > 100 µM | – | – | – | –
10 | CCOC(=O)C(=O)Nc1c(C(C)C)cccc1C(C)C | > 100 | – | > 100 µM | – | > 100 | > 100 µM | > 100 | > 100 | > 100 | – | – | – | – | – | – | > 100 µM | – | – | – | –
11 | O=C1NC2(CN3CCC2CC3)C(=O)N1CN(Cc1ccccc1)c1ccccc1 (stereo not drawn) | > 100 | – | > 100 µM | > 100 | > 100 | > 100 µM | > 100 | > 100 | > 100 | – | – | – | – | – | – | > 100 µM | – | – | – | –
12 | CC(=O)Nc1ccc(S(=O)(=O)NNC(=O)c2cccnc2Nc2ccc(Cl)cc2)cc1 | > 100 | > 100 | – | > 100 | > 100 | 75.5 µM | > 100 | > 100 | > 100 | 52.2 | – | 28.6 | 3.49 | 15.5 µM | 23.4 µM | > 100 µM | 57.5 | 89.4 | 91.5 | 8.5
13 | O=C1CCC(O)=C1O | > 100 | > 100 | > 100 µM | > 100 | > 100 | > 100 µM | > 100 | – | – | – | – | – | – | – | – | > 100 µM | – | – | – | –
14 | Cc1cc(=O)oc2cc(O)c(CN(C)CC(=O)O)cc12 | > 100 | > 100 | > 100 µM | > 100 | – | > 100 µM | – | > 100 | > 100 | – | – | – | – | – | – | > 100 µM | – | – | – | –
15 | Cc1c(Cl)cccc1NC(=O)CC1C(=O)Nc2ccccc2S1(=O)=O (stereo not drawn) | 31.5 | 50.1 | 37.3 µM | 32.3 | 36.5 | 28.7 µM | – | 77.8 | 32.1 | – | – | – | – | – | – | 38.6 µM | – | – | – | –
16 | c1cc(CNC2C3CCC(C3)C2c2c[nH]c3ccccc23)cc(CNC2C3CCC(C3)C2c2c[nH]c3ccccc23)c1 (stereo not drawn) | 2.04 | – | 3.34 µM and 2.88 µM | > 100 | – | 3.39 µM and 3.17 µM | – | 3.82 | – | – | 1.47 | – | – | 1.89 µM and 1.74 µM | 1.01 µM and 0.343 µM | 2.3 µM and 1.51 µM | – | 2 | – | –
17 | O=C([CH-]C(=O)C(F)(F)F)c1ccccc1.O=C([CH-]C(=O)C(F)(F)F)c1ccccc1.O=C([CH-]C(=O)C(F)(F)F)c1ccccc1.O=C([CH-]C(=O)C(F)(F)F)c1ccccc1.[Eu+3].c1ccncc1 | > 100 | 83 | 19.5 µM | 35.3 | 31 | 92.8 µM | – | 55.2 | – | 8.71 | 3.7 | 4.19 | 3.02 | 16 µM | 14.3 µM | > 100 µM | – | 11.9 | – | 4.66
18 | CN=C1SC(=Nc2ccc(N(C)C)cc2)N1C | – | > 100 | > 100 µM | > 100 | > 100 | > 100 µM | 67 | > 100 | > 100 | – | – | – | – | – | – | > 100 µM | – | – | – | –
19 | CC(=O)O[C@@H]1C2C(=O)OC(=O)C2C2CCC[C@]23O[C@H]13 (stereo partly drawn) | > 100 | > 100 | – | > 100 | – | > 100 µM | > 100 | > 100 | > 100 | – | – | – | – | – | – | > 100 µM | – | – | – | –
